Results reported in patent US4404378A, “2-Substituted or unsubstituted aminocarbonyloxyalkyl-1,4-dihydropyridines” (Banyu Pharmaceutical Co., Ltd., priority 1981, dated 1983).
In brackets after ≈: the same amount, converted by molar mass. Like-named read-outs stand apart in the source and are kept apart here.

What was measured:
[1] = system: isolated hearts of rabbits; experiment: Coronary vasodilation in isolated rabbit hearts (Langendorff method); conditions: Oryctolagus cuniculus, isolated rabbit heart, dosage required to increase coronary outflow by 50%, read-out: Coronary vasodilation ICD50
Procedure: (a) Coronary vasodilation According to Langendorff method (O. Langendorff; Pflugers arch. ges. phisiol., 61, 291-332 (1895)), the coronary vasodilation effects were tested using isolated hearts of rabbits.

[2] = Acute toxicity, i.v., up-and-down method; conditions: mouse, in vivo, iv
[3] = system: Beagle dogs; experiment: Coronary effects on dogs; assay type: in vivo, dog
Procedure: (c) Coronary effects on dogs Beagle dogs (13 to 16 kg. .male.) were subjected to thoracotomy under anesthesia with sodium pentobarbital, and a probe was attached to the heart left coronary anterior descending artery of each animal, whereupon the coronary blood flow (CF) was measured by an electromagnetic flowmeter. On the other hand, a probe was attached to the exposed right femoral artery, and the femoral artery blood flow (FAF) was measured by an electromagnetic flowmeter. A canule was inserted to the left femoral artery, and the systemic blood pressure (BP) was bloody measured by a transducer. The heart rate (HR) was measured by an electrocardiogram. The sample solution was intravenously injected to the right femoral vein. The coronary blood flow (CF), the femoral artery blood flow (FAF) and the heart rate (HR) were represented by a % increase upon the injection of each sample as compared with the respective control value upon the injection of a saline. […]

Compound	EC50 ([1]; Table 1(a)) [µg/mL]	LD50 [2] [mg/kg]	EC50 ([1]; Table 1(b)) [µg/mL]	other results
CCOC(=O)C1=C(C)NC(COC(N)=O)=C(C(=O)OCC)C1c1cccc([N+](=O)[O-])c1 (stereo not drawn) [(1)]	0.24 (≈ 0.554 µM)	207	–	–
COC(=O)C1=C(C)NC(COC(N)=O)=C(C(=O)OC)C1c1cccc([N+](=O)[O-])c1 (stereo not drawn) [(3), 2-Aminocarbonyloxymethyl-6-methyl-4-(3-nitrophenyl)-3,5-dimethoxycarbonyl-1,4-dihydropyridine]	0.36 (≈ 0.888 µM)	167	–	–
CCOC(=O)C1=C(C)NC(COC(N)=O)=C(C(=O)OCC)C1c1ccccc1[N+](=O)[O-] (stereo not drawn) [(5), 2-Aminocarbonyloxymethyl-6-methyl-4-(2-nitrophenyl)-3,5-diethoxycarbonyl-1,4-dihydropyridine]	0.48 (≈ 1.11 µM)	104	–	–
CCOC(=O)C1=C(C)NC(COC(=O)NC)=C(C(=O)OCC)C1c1ccccc1[N+](=O)[O-] (stereo not drawn) [(6), 2-N--Methylaminocarbonyloxymethyl-6-methyl-4-(2-nitrophenyl)-3,5-diethoxycarbonyl-1,4-dihydropyridine]	0.45 (≈ 1.01 µM)	30	–	–
CCOC(=O)C1=C(COC(N)=O)NC(C)=C(C(=O)OC(C)C)C1c1cccc([N+](=O)[O-])c1 (stereo not drawn) [(7), 2-Aminocarbonyloxymethyl-6-methyl-4-(3-nitrophenyl)-3-ethoxycarbonyl-5-isopropoxycarbonyl-1,4-dihydropyridine]	0.24 (≈ 0.536 µM)	76	–	–
CCOC(=O)C1=C(COC(=O)NC)NC(C)=C(C(=O)OC(C)C)C1c1cccc([N+](=O)[O-])c1 (stereo not drawn) [(8), 2-N--Methylaminocarbonyloxymethyl-6-methyl-4-(3-nitrophenyl)-3-ethoxycarbonyl-5-isopropoxycarbonyl-1,4-dihydropyridine]	0.23 (≈ 0.498 µM)	37	–	–
CCCOCCOC(=O)C1=C(C)NC(COC(N)=O)=C(C(=O)OCC)C1c1cccc([N+](=O)[O-])c1 (stereo not drawn) [(9), 2-Aminocarbonyloxymethyl-6-methyl-4-(3-nitrophenyl)-3-ethoxycarbonyl-5-(β-propoxyethoxy)carbonyl-1,4-dihydropyridine]	–	136	0.34 (≈ 0.692 µM)	–
CCCOCCOC(=O)C1=C(C)NC(COC(N)=O)=C(C(=O)OCC)C1c1ccccc1[N+](=O)[O-] (stereo not drawn) [(10), 2-Aminocarbonyloxymethyl-6-methyl-4-(2-nitrophenyl)-3-ethoxycarbonyl-5-(β-propoxyethoxy)carbonyl-1,4-dihydropyridine]	–	84	0.3 (≈ 0.61 µM)	–
CCCOCCOC(=O)C1=C(COC(N)=O)NC(C)=C(C(=O)OCC)C1c1cccc([N+](=O)[O-])c1 (stereo not drawn) [(11), 2-Aminocarbonyloxymethyl-6-methyl-4-(3-nitrophenyl)-5-ethoxycarbonyl-3-(β-propoxyethoxy)carbonyl-1,4-dihydropyridine]	–	123	0.25 (≈ 0.509 µM)	–
CCCOCCOC(=O)C1=C(C)NC(COC(N)=O)=C(C(=O)OCCOCCC)C1c1cccc([N+](=O)[O-])c1 (stereo not drawn) [(12), 2-Aminocarbonyloxymethyl-6-methyl-4-(3-nitrophenyl)-3,5-bis[(β-propoxyethoxy)carbonyl]-1,4-dihydropyridine]	–	123	0.15 (≈ 0.273 µM)	–
CCCOCCOC(=O)C1=C(C)NC(COC(=O)NC)=C(C(=O)OCCOCCC)C1c1cccc([N+](=O)[O-])c1 (stereo not drawn) [(13), 2-N--Methylaminocarbonyloxymethyl-6-methyl-4-(3-nitrophenyl)-3,5-bis[(β-propoxyethoxy)carbonyl]-1,4-dihydropyridine]	–	104	0.04 (≈ 0.071 µM)	–
CCOC(=O)C1=C(C)NC(COC(=O)NC2CCCCC2)=C(C(=O)OCCOC)C1c1cccc([N+](=O)[O-])c1 (stereo not drawn) [(14), 2-N--Cyclohexylaminocarbonyloxymethyl-6-methyl-5-ethoxycarbonyl-3-(β-methoxyethoxy)carbonyl-1,4-dihydropyridine]	–	88	0.35 (≈ 0.642 µM)	–
COC(=O)C1=C(COC(N)=O)NC(C)=C(C(=O)OCCN(C)Cc2ccccc2)C1c1cccc([N+](=O)[O-])c1 (stereo not drawn) [(15), 2-Aminocarbonyloxymethyl-6-methyl-4-(3-nitrophenyl)-3-methoxycarbonyl-5-(β-N--methylbenzylaminoethoxy)carbonyl-1,4-dihydropyridine]	–	> 200	0.4 (≈ 0.743 µM)	–
CNC(=O)OCC1=C(C(=O)OC)C(c2cccc([N+](=O)[O-])c2)C(C(=O)OCCN(C)Cc2ccccc2)=C(C)N1 (stereo not drawn) [(16), 2-N--Methylaminocarbonyloxymethyl-6-methyl-4-(3-nitrophenyl)-3-methoxycarbonyl-5-(β-N--methylbenzylaminoethoxy)carbonyl-1,4-dihydropyridine]	–	146	0.25 (≈ 0.452 µM)	–
COC(=O)C1=C(COC(N)=O)NC(C)=C(C(=O)OCCN2CCN(C)CC2)C1c1cccc([N+](=O)[O-])c1 (stereo not drawn) [(17), 2-Aminocarbonyloxymethyl-6-methyl-4-(3-nitrophenyl)-3-methoxycarbonyl-5-[β-(4-methyl-1-piperazinyl)ethoxycarbonyl]-1,4-dihydropyridine]	–	68	2 (≈ 3.86 µM)	–
COC(=O)C1=C(COC(N)=O)NC(C)=C(C(=O)OCCN2CCOCC2)C1c1cccc([N+](=O)[O-])c1 (stereo not drawn) [(18), 2-Aminocarbonyloxymethyl-6-methyl-4-(3-nitrophenyl)-3-methoxycarbonyl-5-(β-morpholinoethoxy)carbonyl-1,4-dihydropyridine]	–	> 200	1.5 (≈ 2.97 µM)	–
CCCOCCOC(=O)C1=C(COC(N)=O)NC(C)=C(C(=O)OCCN(C)Cc2ccccc2)C1c1cccc([N+](=O)[O-])c1 (stereo not drawn) [(19), 2-Aminocarbonyloxymethyl-6-methyl-4-(3-nitrophenyl)-3-(β-propoxyethoxy)carbonyl-5-(β-N--methylbenzylaminoethoxy)carbonyl-1,4-dihydropyridine]	–	168	0.18 (≈ 0.295 µM)	–
COCCOC(=O)C1=C(C)NC(COC(N)=O)=C(C(=O)OCCOC)C1c1ccccc1Cl (stereo not drawn) [(20), 2-Aminocarbonyloxymethyl-6-methyl-4-(2-chlorophenyl)-3,5-bis[(β-methoxyethoxy)carbonyl]-1,4-dihydropyridine]	–	184	0.36 (≈ 0.745 µM)	–
CCOC(=O)C1=C(COC(=O)Nc2ccc(Cl)cc2)NC(C)=C(C(=O)OC(C)C)C1c1cccc([N+](=O)[O-])c1 (stereo not drawn) [(21), 2-(4-chlorophenyl)aminocarbonyloxymethyl-6-methyl-4-(3-nitrophenyl)-3-ethoxycarbonyl-5-isopropoxycarbonyl-1,4-dihydropyridine]	–	83	0.28 (≈ 0.502 µM)	–
CCOC(=O)C1=C(COC(=O)Nc2ccccc2)NC(C)=C(C(=O)OC(C)C)C1c1cccc([N+](=O)[O-])c1 (stereo not drawn) [(22), 2-N--Phenylaminocarbonyloxymethyl-6-methyl-4-(3-nitrophenyl)-3-ethoxycarbonyl-5-isopropoxycarbonyl-1,4-dihydropyridine]	–	80	0.33 (≈ 0.63 µM)	–
COC(=O)C1=C(C)NC(C)=C(C(=O)OC)C1c1ccccc1[N+](=O)[O-] [nifedipine, 2,6-Dimethyl-4-(2-nitrophenyl)-3,5-dimethoxycarbonyl-1,4-dihydropyridine]	0.29 (≈ 0.837 µM)	–	0.22 (≈ 0.635 µM)	BP (systemic blood pressure) % decrease ([3]; 1 μg/kg i.v.): 2%; CF (coronary blood flow) % increase ([3]; 1 μg/kg i.v.): 10%; FAF (femoral artery blood flow) % increase ([3]; 1 μg/kg i.v.): -3%; HR (heart rate) % increase ([3]; 1 μg/kg i.v.): 0.6%; BP (systemic blood pressure) % decrease ([3]; 3 μg/kg i.v.): 10%; CF (coronary blood flow) % increase ([3]; 3 μg/kg i.v.): 48%; FAF (femoral artery blood flow) % increase ([3]; 3 μg/kg i.v.): -4%; HR (heart rate) % increase ([3]; 3 μg/kg i.v.): 2%; BP (systemic blood pressure) % decrease ([3]; 10 μg/kg i.v.): 18%; CF (coronary blood flow) % increase ([3]; 10 μg/kg i.v.): 86%; FAF (femoral artery blood flow) % increase ([3]; 10 μg/kg i.v.): 10%; HR (heart rate) % increase ([3]; 10 μg/kg i.v.): 4%
